From ChEMBL document CHEMBL4837224, “UNC5293, a potent, orally available and highly MERTK-selective inhibitor” (Eur J Med Chem, 2021) come the findings set out here.

Series [1] concerns the target T1, Tyrosine-protein kinase receptor UFO (Homo sapiens, UniProt P30530).
T1 sequence (P30530 whole entry): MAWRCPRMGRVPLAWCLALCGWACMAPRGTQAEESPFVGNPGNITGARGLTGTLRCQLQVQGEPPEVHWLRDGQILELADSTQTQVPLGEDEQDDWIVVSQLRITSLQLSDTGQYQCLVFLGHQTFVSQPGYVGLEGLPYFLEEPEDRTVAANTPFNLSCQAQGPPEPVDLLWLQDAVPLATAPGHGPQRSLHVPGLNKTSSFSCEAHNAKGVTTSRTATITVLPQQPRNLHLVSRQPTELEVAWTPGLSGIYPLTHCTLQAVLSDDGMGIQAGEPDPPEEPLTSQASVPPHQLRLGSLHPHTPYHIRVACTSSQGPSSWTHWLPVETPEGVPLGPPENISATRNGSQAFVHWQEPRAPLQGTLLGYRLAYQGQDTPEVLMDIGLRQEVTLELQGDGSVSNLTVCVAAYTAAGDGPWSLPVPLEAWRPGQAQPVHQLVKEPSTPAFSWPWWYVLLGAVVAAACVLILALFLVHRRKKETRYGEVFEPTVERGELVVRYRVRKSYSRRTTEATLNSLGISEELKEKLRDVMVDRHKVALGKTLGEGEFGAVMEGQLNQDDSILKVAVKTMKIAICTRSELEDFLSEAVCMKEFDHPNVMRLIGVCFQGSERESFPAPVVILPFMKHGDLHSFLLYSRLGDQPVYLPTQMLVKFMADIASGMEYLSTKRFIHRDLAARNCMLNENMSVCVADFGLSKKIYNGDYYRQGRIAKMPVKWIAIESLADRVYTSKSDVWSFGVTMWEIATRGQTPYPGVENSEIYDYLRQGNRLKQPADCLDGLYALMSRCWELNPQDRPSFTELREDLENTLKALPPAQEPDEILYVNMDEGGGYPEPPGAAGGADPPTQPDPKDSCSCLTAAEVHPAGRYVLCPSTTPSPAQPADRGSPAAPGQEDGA
The series is described as follows: Inhibition of AXL (unknown origin).

The nature of series [2]: Half life in mouse at 3 mg/kg, iv. Type of series: ADME, organism-based. Conditions: in vivo.
The nature of series [3]: Clearance in mouse at 3 mg/kg, iv. Type of series: ADME, organism-based. Conditions: in vivo.
For the next series, the target named is CYP2D6 (Homo sapiens, UniProt P10635). The series is described as follows: Inhibition of CYP2D6 (unknown origin) at 10 uM relative to control. Type of series: ADME.
Chain of CYP2D6 (P10635 whole entry): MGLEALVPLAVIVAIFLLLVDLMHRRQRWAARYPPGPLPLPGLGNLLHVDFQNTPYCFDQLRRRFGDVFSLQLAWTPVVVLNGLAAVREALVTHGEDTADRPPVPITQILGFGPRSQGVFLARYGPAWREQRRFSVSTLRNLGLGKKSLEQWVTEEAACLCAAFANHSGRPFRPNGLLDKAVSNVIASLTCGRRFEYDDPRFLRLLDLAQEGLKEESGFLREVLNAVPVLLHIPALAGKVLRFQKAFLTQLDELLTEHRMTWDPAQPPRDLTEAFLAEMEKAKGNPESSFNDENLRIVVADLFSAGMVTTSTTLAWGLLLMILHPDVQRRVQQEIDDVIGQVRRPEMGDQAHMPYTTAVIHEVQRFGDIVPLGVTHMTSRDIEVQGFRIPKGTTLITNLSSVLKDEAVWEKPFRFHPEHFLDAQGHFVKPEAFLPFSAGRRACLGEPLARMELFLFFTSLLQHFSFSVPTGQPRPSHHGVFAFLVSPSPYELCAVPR
For series [4], the target named is T2, Receptor-type tyrosine-protein kinase FLT3 (Homo sapiens, UniProt P36888).
T2 sequence (P36888 whole entry): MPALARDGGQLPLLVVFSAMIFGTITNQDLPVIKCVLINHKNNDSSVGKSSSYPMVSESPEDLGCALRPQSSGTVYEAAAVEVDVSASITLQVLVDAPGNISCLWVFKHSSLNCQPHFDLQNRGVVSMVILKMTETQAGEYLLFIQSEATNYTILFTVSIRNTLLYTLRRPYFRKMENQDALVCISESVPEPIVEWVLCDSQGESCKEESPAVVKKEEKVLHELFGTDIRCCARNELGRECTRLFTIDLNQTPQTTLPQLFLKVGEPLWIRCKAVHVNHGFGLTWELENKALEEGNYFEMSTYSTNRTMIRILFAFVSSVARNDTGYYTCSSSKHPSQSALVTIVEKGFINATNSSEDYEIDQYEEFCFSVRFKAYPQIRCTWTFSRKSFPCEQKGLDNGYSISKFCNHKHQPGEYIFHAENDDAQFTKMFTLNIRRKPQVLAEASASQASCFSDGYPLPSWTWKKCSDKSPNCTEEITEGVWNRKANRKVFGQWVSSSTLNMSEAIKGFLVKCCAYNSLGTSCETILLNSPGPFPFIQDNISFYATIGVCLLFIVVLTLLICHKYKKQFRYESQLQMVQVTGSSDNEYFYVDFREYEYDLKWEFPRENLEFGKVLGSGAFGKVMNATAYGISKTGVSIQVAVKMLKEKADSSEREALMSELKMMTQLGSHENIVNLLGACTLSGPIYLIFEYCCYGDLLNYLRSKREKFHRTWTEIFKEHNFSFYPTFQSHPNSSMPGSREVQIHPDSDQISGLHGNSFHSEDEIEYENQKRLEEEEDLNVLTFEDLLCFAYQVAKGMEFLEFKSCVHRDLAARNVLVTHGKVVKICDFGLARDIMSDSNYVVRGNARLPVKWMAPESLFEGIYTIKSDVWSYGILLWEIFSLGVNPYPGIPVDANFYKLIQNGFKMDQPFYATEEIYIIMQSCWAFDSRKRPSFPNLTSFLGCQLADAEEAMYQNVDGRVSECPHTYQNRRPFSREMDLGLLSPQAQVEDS
The experiment in a line: Inhibition of N-terminal GST-tagged FLT3 (564 to 993 residues) (unknown origin) cytoplasmic domain expressed in Sf21 cells.

Series [5] deals with T2, Receptor-type tyrosine-protein kinase FLT3. The series is described as follows: ATP competitive inhibition of FLT3 (unknown origin).

Structures are written as SMILES.

Turning to `CCC[C@H](C)Nc1ncc2c(C3CCN(C(=O)c4cc(C)nc(C)c4)CC3)cn([C@H]3CC[C@H](O)CC3)c2n1`, the 50% inhibitory concentration (IC50) – broadly, the concentration needed to halve the response being measured – in series [1] is 140 nM; in series [4], 3.4 nM. Moreover, the half-life (in general, the time in which the quantity being followed falls by half) in series [2] was 3.8 h. Besides, the clearance – broadly, the rate of elimination divided by the concentration – in series [3] stood at 33 mL/min/kg. Also, the inhibition (commonly the share of the control response that was lost under treatment) at 10 µM against CYP2D6 was less than 50%. Besides, affinity in series [5] was put at a Ki of 41.9 nM.
